Laboratory results from US12391660B2, “Heteroaromatic acetamide derivative, and preparation and use thereof” (Hangzhou Westan Pharmaceutical Technology Co., Ltd, priority 2019, dated 2025).

Each compound was assayed against human TRPA1 (Homo sapiens (Human), UniProt O75762) (assay: FLIPR assay of inhibitory activity on human TRPA1 (calcium ion flux fluorescence)). Conditions: HEK293 cells stably expressing human TRPA1.
Type: cell-based
Experimental: 1. FLIPR Assay of Inhibitory Activity on Human TRPA1
A calcium ion flux fluorescence method (FLIPR assay) was adopted to measure the inhibitory activity of compounds on human TRPA1 channel. The literature reports of Lee and Chen et al. may be referred to for the method [Lee et al. Br J Pharmacol 2008, 153 (8): 1739-1749] [Chen et al. Pain 2011, 152(5):1165-72].
A HEK293 recombinant cell strain stably expressing human TRPA1 (Creative Biogene, NY) was cultured in DMEM (Thermo Fisher Scientific, Shanghai) medium (containing 10% calf serum, 5 μg/ml Blasticidin and 400 ug/ml G418). The incubator was under a condition of 37° C. and air humidity with 5% CO2.
TRPA1 cells were seeded in a 96-well analysis plate at a density of 75,000 cells per well (100 ul/well), and cultured overnight in an incubator at 37° C. and 5% CO2. On the second day, incubation was continued overnight under the same condition to induce the expression of TRPA1 after the culture medium in each well was poured out and a fresh supplement with the same culture medium containing 0.1 μg/ml Tetracycline was added. The further next day, the culture medium was pour out, a DMEM culture solution (also containing 2.5 mM Probenicid) containing 5 μM Fluo-4 AM (Molecular Probes) was added to each well, and incubation was conducted at 37° C. for 1 hour.
The compound was dissolved in 100% DMSO to prepare a 30 mM stock solution which was stored at −20° C. On the day of use, the compound stock solution was thawed at room temperature. Each compound was subjected to 1:5 serial dilution using DMSO medium at a starting concentration of 30 μM with 9 concentration points on a 96-well plate. Each compound was diluted in duplicate for testing. Ruthenium Red was used as the positive control compound and the same dilution was carried out at a starting concentration of 3 μM.
The cell analysis plate was placed in an FLIPR instrument […], and the compound in the compound plate was added to the corresponding hole on the cell analysis plate (First addition) via an automatic program, and the calcium ion fluorescence signal was recorded to determine whether the compound had agonistic activity. After 10 minutes, CaCl2 (Second addition) was added a final concentration of 3 mM to each well to stimulate intracellular calcium flux signals. Ca^++-dependent fluorescence signal was monitored continuously at 538 nm wavelength to analyze the inhibitory activity of the compounds.
The data was collected and analyzed using a FLIPR program. The fluorescence peak value was used to evaluate the inhibitory (or agonistic) activity of the compounds at each concentration. EXCEL and PRISM programs were used to calculate the IC50 value of the compounds.

Chain of human TRPA1 (O75762 whole entry): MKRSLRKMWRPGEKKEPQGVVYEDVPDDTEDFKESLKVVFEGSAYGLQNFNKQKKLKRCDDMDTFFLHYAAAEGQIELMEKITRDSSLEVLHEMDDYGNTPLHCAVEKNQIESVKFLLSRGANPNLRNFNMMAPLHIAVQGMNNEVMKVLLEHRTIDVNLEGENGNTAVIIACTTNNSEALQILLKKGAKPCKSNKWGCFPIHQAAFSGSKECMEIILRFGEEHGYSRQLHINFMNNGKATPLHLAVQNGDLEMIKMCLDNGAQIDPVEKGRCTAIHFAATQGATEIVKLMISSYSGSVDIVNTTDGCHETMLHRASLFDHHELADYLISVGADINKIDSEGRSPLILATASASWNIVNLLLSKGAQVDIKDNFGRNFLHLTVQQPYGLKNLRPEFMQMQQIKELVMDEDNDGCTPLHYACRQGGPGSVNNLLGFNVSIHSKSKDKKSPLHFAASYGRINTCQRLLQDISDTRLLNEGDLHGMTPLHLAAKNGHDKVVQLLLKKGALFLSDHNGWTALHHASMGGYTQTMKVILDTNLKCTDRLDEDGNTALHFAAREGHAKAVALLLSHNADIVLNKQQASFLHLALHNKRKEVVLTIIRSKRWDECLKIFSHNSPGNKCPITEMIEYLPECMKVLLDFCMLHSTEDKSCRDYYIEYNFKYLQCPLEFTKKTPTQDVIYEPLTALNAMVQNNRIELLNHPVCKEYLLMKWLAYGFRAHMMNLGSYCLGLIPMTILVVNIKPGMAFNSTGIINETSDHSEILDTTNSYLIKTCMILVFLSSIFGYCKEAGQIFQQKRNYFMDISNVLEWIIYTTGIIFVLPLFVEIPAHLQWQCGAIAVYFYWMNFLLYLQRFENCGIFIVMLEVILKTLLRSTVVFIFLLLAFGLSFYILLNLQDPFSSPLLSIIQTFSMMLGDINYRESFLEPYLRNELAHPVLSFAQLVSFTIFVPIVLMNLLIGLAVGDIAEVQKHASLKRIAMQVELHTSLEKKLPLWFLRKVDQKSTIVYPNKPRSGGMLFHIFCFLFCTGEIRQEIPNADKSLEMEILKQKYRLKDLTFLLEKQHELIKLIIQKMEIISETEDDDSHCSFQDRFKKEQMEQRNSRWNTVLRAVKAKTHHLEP

Row | IC50 [nM] | Compound
1 | 4650 | Cn1cc(NC2(C(=O)N3CCC(C(C)(C)C)CC3)CCCC2)nc1C#N [Compound 42, 4-((1-(4-(tert-butyl)piperidine-1-carbonyl)cyclopentyl)amino) -1-methyl-1H-imidazole-2-carbonitrile]
2 | 91 | CC(C)(C)C1CCN(C(=O)C(Nc2ccc(C#N)cc2)C(C)(C)C)CC1 (centres unmarked) [Compound 43, 4-((1-(4-(tert-butyl)piperidine-1-carbonyl)tert-butyl)amino) benzonitrile]
3 | 72 | CC(C)(C)C1CCN(C(=O)C2(Nc3ccc(C(F)(F)F)cc3)CCCC2)CC1 [Compound 45]
4 | 108 | CC(C)(C)C1CCN(C(=O)C2(Nc3ccc(Cl)cc3)CCCC2)CC1 [Compound 46, 4-((1-(4-(tert-butyl)piperidine-1-carbonyl)cyclopentyl)amino) chlorobenzene]
5 | 65 | Cc1cccc(N2CCN(C(=O)C3(Oc4ccc(C#N)cc4)CCCC3)CC2)c1 [Compound 48, 4-((1-(4-(m-methylphenyl)piperazine-1-carbonyl)cyclopentyl)oxy)benzonitrile]
6 | 325 | N#Cc1ccc(OC2(C(=O)N3CCN(c4ccc(C(F)(F)F)cc4)CC3)CCCC2)cc1 [Compound 49]
7 | 182 | CC(C)(C)C(Oc1ccc(C#N)cc1)C(=O)N1CCN(c2cccc(C(F)(F)F)n2)CC1 (centres unmarked) [Compound 51]
8 | 465 | N#Cc1ccc(OC2(C(=O)N3CCN(c4ccc(C(F)(F)F)nn4)CC3)CCCC2)cc1 [Compound 52, 4-((1-(4-(6-(trifluoromethyl)pyridazin-3-yl)piperazine-1-carbonyl)cyclopentyl)oxy)ben zonitrile]
9 | 862 | O=C(N1CCN(c2ccc(C(F)(F)F)nn2)CC1)C1(Oc2ccc([N+](=O)[O-])cc2)CCCC1 [Compound 53, 4-((1-(4-(6-(trifluoromethyl)pyridazin-3-yl)piperazine-1-carbonyl)cyclopentyl)oxy)nitro benzene]
10 | 91 | N#Cc1ccc(OC2(C(=O)N3CC4CCC3CN4c3cccc(C(F)(F)F)n3)CCCC2)cc1 (centres unmarked) [Compound 55, 4-((1-(5-(6-(trifluoromethyl)pyridin-2-yl)-2,5-diazabicyclo [2.2.2]octane-2-carbonyl)cyclopentyl)oxy)benzonitrile]
11 | 76 | CC(C)(C)C1CCN(C(=O)C2(Oc3ccc(C#N)cc3)CCCC2)CC1 [Compound 56, 4-((1-(4-(tert-butyl)piperidine-1-carbonyl)cyclopentyl)oxy) benzonitrile]
12 | 51 | CC(C)(C)N1CCN(C(=O)C2(Oc3ccc(C#N)cc3)CCCC2)CC1 [Compound 57, 4-((1-(4-(tert-butyl)piperazine-1-carbonyl)cyclopentyl)oxy) benzonitrile]
13 | 620 | N#Cc1ccc(OC2(C(=O)N3CCN(c4cccc(C(F)(F)F)n4)CC3)CCC2)cc1 [Compound 58, 4-((1-(4-(6-(trifluoromethyl)pyridin-2-yl)piperazine-1-carbonyl)cyclobutyl)oxy)benzo nitrile]
14 | 847 | N#Cc1ccc(OC2(C(=O)N3CCN(c4ccc(C(F)(F)F)nn4)CC3)CCCC2)cc1Cl [Compound 60, 2-chloro-4-((1-(4-(6-(trifluoromethyl)pyridazin-3-yl)piperazine-1-carbonyl)cyclopentyl)oxy)benzonitrile]
15 | 560 | N#Cc1ccc(OC(C(=O)N2CCN(c3ccc(C(F)(F)F)nn3)CC2)c2ccccc2)cc1 (centres unmarked) [Compound 63]
16 | 552 | CC(C)(C)N1CCN(C(=O)C2(Oc3ccc(C(F)(F)F)cc3)CCCC2)CC1 [Compound 64, 4-((1-(4-(tert-butyl)piperazine-1-carbonyl)cyclopentyl)oxy) trifluoromethylbenzene]

Row | Compound | IC50 [nM]
17 | N#Cc1ccc(OC2(C(=O)N3CCN(c4cccc(C(F)(F)F)n4)CC3)CCCC2)cc1 [Compound 47, 4-((1-(4-(6-(trifluoromethyl)pyridin-2-yl)piperazine-1-carbonyl)cyclopentyl)oxy)benzonitrile] | 38
